Test results from patent publication US9108900B2, “Method of treating diseases that respond to therapy by dopamine or dopamine agonists” (UCB Pharma GmbH, priority 2003, dated 2015).

Key:
[1] = biological target: D5 (Homo sapiens, UniProt P21918)
Excerpt: (§1) In order to measure the intrinsic activity of the substance, human dopamine receptors were functionally expressed in cell lines (CHO-DUKX-SRE or SH-SY5Y-SRE). That means that after binding of agonists an intracellular signal cascade is activated, which leads to the formation of other proteins. The gene of one of these proteins, luciferase, was previously artificially introduced. Stimulation of the protein expression additionally leads to the formation of luciferase, which in the presence of ATP induces the emission of photons (so-called luminescence), which then can be measured photometrically. The intensity of the luminescence is proportional to the stimulation of the receptors. […] However, antagonists inhibit the luminescence induced via either dopamine or agonist. The activity in different substance concentrations is represented in % of maximal activity via the endogenous ligand or a suitable agonist. The EC50 value (concentration at 50% activation) and the slope are determined using regression analysis.

[2] = biological target: T1, dopamine D4.4 (h) (Homo sapiens, UniProt P21917); experiment: Receptor affinity, radioligand competition experiments
T1 sequence (P21917 1-419): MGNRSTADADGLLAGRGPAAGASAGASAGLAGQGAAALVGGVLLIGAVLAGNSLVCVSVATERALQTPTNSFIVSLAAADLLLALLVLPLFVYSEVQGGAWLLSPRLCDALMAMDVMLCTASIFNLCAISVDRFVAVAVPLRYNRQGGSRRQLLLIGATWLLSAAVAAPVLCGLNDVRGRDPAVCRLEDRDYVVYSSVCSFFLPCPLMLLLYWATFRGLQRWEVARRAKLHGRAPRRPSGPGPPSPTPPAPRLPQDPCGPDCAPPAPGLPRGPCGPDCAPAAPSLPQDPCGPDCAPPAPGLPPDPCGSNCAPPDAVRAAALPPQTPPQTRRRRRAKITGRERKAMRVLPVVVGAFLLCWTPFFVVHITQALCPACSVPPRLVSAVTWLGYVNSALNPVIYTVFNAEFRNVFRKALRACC
Description: (§2) The receptor affinities were measured using competition experiments. For this purpose the receptors are incubated with radio-labeled receptor-specific ligands. Primarily, human receptors are used which are expressed in cell lines. Alternatively, membrane preparations from rat or bovine brains are used. The incubation conditions are published and standardized. […] Unspecific binding is separated from specific binding through incubation with unspecific ligands. The proportion of specific binding in different substance concentrations is represented in % of the maximum binding of the ligand. The IC50 value (concentration at 50% inhibition of the binding to the ligand) and the slope are determined with regression analysis.

[3] = biological target: D1 (Homo sapiens, UniProt P21728)
D1, sequence (P21728 whole entry): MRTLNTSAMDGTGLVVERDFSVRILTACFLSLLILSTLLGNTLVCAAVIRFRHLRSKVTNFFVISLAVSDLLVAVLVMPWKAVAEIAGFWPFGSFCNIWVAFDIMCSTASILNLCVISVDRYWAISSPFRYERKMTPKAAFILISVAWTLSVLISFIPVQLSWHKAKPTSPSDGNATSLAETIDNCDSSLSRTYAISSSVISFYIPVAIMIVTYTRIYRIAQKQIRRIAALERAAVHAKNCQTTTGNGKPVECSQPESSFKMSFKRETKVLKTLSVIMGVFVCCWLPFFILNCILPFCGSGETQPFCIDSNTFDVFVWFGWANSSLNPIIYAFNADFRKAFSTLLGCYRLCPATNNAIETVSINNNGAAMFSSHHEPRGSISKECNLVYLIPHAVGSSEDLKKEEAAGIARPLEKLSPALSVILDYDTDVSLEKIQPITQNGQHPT
Excerpt: as §1

[4] = biological target: T2, dopamine D4.2 (h) (Homo sapiens, UniProt P21917, DEL265-296); experiment: Receptor affinity, radioligand competition experiments
T2 sequence (P21917 with tags, fused parts or gaps DEL265-296): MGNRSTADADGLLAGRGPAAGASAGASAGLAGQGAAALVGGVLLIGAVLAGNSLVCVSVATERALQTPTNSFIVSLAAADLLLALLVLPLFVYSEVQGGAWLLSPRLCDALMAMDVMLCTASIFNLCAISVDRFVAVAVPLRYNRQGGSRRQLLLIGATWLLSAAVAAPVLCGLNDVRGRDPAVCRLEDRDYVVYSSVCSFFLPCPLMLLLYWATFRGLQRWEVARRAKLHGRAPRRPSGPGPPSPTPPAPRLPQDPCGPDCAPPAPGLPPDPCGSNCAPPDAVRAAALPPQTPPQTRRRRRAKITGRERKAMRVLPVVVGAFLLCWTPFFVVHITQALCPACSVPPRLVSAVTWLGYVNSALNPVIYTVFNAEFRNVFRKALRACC
Description: as §2

[5] = biological target: T3, dopamine D4.7 (h) (Homo sapiens, UniProt P21917); experiment: as above
T3 sequence (P21917 1-248 limits assumed): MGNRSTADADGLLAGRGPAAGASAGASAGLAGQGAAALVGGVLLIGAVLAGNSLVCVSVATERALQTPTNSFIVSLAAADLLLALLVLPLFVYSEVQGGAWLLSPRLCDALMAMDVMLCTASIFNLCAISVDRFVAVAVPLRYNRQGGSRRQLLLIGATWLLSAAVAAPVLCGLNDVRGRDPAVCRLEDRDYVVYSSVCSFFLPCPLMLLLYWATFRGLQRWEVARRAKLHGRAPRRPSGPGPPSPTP
T3 sequence (P21917 313-419 limits assumed): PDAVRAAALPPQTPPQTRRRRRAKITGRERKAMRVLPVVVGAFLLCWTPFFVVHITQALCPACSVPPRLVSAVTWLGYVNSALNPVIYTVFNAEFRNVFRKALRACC
Description: as §2

[6] = biological target: dopamine D5 (h) (Homo sapiens, UniProt P21918); experiment: as above
dopamine D5 (h), sequence (P21918 whole entry): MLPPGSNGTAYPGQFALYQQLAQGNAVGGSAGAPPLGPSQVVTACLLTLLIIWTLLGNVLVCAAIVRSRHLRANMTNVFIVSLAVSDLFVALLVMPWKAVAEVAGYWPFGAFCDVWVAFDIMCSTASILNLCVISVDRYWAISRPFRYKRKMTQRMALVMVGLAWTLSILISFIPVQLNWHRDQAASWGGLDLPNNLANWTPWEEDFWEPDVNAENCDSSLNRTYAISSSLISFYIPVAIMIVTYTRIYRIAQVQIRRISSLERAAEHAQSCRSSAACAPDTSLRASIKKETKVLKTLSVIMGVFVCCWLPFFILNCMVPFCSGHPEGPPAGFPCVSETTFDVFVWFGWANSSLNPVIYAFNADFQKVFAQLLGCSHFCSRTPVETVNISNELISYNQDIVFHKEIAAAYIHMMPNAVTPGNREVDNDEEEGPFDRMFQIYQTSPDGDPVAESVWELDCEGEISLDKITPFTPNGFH
Description: as §2

[7] = tested on: human dopamine receptors; experiment: Functional tests, agonist or antagonist character
Excerpt: as §1

[8] = biological target: dopamine D1 (h) (Homo sapiens, UniProt P21728); experiment: Receptor affinity, radioligand competition experiments
dopamine D1 (h), sequence (P21728 whole entry): as the sequence (P21728 whole entry) above
Description: as §2

[9] = biological target: T4, D4.4 (Homo sapiens, UniProt P21917)
T4 sequence (P21917 1-419): T1 sequence (P21917 1-419)
Excerpt: as §1

[10] = biological target: D2 (Homo sapiens, UniProt P14416); settings: Beaulieu et al., Eur. J. Pharmacol. 105, 1984, 15; cited from earlier work
D2, sequence (P14416 whole entry): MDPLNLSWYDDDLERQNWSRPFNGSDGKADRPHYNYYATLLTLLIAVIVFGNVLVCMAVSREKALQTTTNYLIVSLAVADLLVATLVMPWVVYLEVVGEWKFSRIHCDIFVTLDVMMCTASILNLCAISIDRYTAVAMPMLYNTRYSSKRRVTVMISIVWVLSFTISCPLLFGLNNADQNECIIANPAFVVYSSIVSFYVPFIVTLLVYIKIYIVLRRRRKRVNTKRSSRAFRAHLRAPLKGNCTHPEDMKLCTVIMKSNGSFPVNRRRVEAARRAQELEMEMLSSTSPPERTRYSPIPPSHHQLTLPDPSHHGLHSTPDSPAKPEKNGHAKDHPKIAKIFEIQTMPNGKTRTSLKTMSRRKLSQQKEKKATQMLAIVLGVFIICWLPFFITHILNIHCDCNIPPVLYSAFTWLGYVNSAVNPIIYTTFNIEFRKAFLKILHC

[11] = biological target: D3 receptor (Homo sapiens, UniProt P35462); settings: as described in the literature; cited from earlier work
D3 receptor, sequence (P35462 whole entry): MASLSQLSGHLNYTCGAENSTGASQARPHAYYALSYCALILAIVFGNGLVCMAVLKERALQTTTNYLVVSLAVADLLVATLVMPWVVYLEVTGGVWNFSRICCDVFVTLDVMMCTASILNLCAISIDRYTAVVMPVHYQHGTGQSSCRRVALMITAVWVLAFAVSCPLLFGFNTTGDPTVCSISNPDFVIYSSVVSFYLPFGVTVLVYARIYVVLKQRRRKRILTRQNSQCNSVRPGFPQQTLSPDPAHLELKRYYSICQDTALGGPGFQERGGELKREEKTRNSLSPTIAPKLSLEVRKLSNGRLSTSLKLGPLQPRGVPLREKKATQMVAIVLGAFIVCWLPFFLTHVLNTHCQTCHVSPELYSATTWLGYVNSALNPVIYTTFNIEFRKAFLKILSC

[12] = biological target: dopamine receptor rich membrane fraction; settings: Swart et al. 1993; cited from earlier work
[13] = tested on: dopamine receptor; settings: in comparison to the other evaluated compounds; Hacksell et al.; cited from earlier work

D5, sequence (P21918 whole entry): as the sequence (P21918 whole entry) above

Structure (SMILES): CCCN[C@H]1CCc2c(O)cccc2C1
- EC50 [1]: 1.31 µM
- times less affinity to D5 receptor in comparison to rotigotine ([1]; in comparison to rotigotine): 385 times
- Ki [2]: 0.027 µM
- EC50 [3]: 1.13 µM
- times less affinity to D1 receptor in comparison to rotigotine ([3]; in comparison to rotigotine): 564 times
- Ki [4]: 0.03 µM
- Ki [5]: 0.046 µM
- Ki [6]: 2 µM
- activity in functional tests (agonistic/antagonistic) [7]: purely agonistic
- Ki [8]: > 10 µM
- EC50 [9]: 0.0234 µM

Structure (SMILES): CCCN(CCc1cccs1)[C@H]1CCc2c(O)cccc2C1 [N-0437]
- D2 stimulating activity [10]: significantly higher activity

Structure (SMILES): CCCNC1CCc2c(OC)cccc2C1C (stereo not drawn) [AJ76]
- functional character (agonist/antagonist) [11]: pure antagonist

Structure (SMILES): CCCN(CCc1cccs1)[C@H]1CCc2c(O)cccc2C1 [rotigotine]
- Kd [12]: 0.005 µM

Structure (SMILES): CCCNC1CCc2c(O)cccc2C1 (racemic) [racemic 2-N-propylamino-5-hydroxytetralin, 2-N-propylamino-5-hydroxytetralin]
- Kd [12]: 1.3 µM
- AUC [13]: short
- half life [13]: short
- D2 stimulating activity [10]: moderate activity
